# In patent US5607914A, “Synthetic antimicrobial peptides” (Pioneer Hi-Bred International, Inc., priority 1994, dated 1997):
# Like-named read-outs stand apart in the source and are kept apart here. No end group written: not given here.
# Tests used:
# A. flavus = test: Antifungal activity of synthetic peptides (MIC/MCIC); type: cell-based
# F. graminearum = type: cell-based
# F. moniliforme = test: Antifungal activity of synthetic peptides (MIC/MCIC); type: cell-based
substance,measurement,setting,value
"Cecropin A (KWKLFKKIEKVGQNIRDGIIKAGPAVAVVGQATQIAK; ends and bridges not checked; UniProt P01507 27-63, looked up)",MCIC,A. flavus,> 80
same,MIC,A. flavus,80 µg/mL
same,MIC,"F. graminearum; F. graminearum, score of 1 or greater (25% growth inhibition)",60 µg/mL
same,MCIC,"F. graminearum; F. graminearum, score of 3 or greater (≥80% growth inhibition)",> 80 µg/mL
same,MCIC,F. moniliforme,> 80
same,MIC,F. moniliforme,80 µg/mL
KLKKALRWLARHAK [Peptide 20],MIC,E. coli,3.13 μg per ml
same,MIC,A. tumefaciens,3.13 μg per ml
same,MIC,C. nebraskense,3.13 μg per ml
KWKKALRALARHLK [Peptide 19],MIC,E. coli,6.25 μg per ml
same,MIC,A. tumefaciens,6.25 μg per ml
same,MIC,C. nebraskense,3.13 μg per ml
Mastoparan,MIC,"A. flavus; A. flavus, concentration achieving a score of 1 or greater (25% growth inhibition)",20 µg/mL
same,MCIC,"A. flavus; A. flavus, concentration achieving a score of 3 or greater (≥80% growth inhibition)",40 µg/mL
same,MCIC,F. graminearum,10
same,MIC,F. graminearum,5 µg/mL
same,MIC,"F. moniliforme; F. moniliforme, score of 1 or greater (25% growth inhibition)",2.5 µg/mL
same,MCIC,"F. moniliforme; F. moniliforme, score of 3 or greater (≥80% growth inhibition)",10 µg/mL
RRIYRAIRHIPRRIR [Peptide 22],MIC,E. coli; E. coli,3.13 μg per ml
same,MIC,C. nebraskense; C. nebraskense,12.5 μg per ml
